Assay results: patent US11566030B2, “Substituted 2,6-dihydropyrrolo[3,4-c]pyrazoles as pyruvate kinase activators” (priority 2021, dated 2023)
Read-outs that look alike come from different tables or passages of the source.

Molecular target: T1, Human pyruvate kinase R (PKR) (Homo sapiens, UniProt P30613)
T1 construct: Human pyruvate kinase R (PKR), residues 14-574; 6xHis-8xArg-SUMO (N, cleaved yes); host or cells: E. coli
Assay: Biochemical assay for activation of pyruvate kinase R (Kinase-Glo luminescence, ATP generation)
Details: for Emax: read-out: PKR % activation, maximal activation level achieved with each compound relative to the activation level achieved by AG-348 @ 10 μM
Procedure: Human pyruvate kinase R (PKR), residues 14-574, and human pyruvate kinase M2, residues 1-531, were cloned into expression plasmids and obtained from ATUM Bio (Newark, Calif.). Proteins were translated as fusions with 6×-His,8×-Arg, and SUMO at the N-terminus. A third construct of human PKR was truncated, residues 50-574, and similarly cloned for use in crystallography experiments. All proteins were cloned, expressed in E. coli, and purified using similar protocols. Cells were grown at 30° C. in Luria-Bertani broth supplemented with 0.4% glucose to OD600=0.8 and induced with 0.4 mM IPTG at 16° C. for 18 hours. Cells were harvested by centrifugation, resuspended in 50 mM potassium phosphate pH 8.0, 500 mM NaCl, 25 mM imidazole pH 8.0, and 3 mM β-mercaptoethanol. Cells were lysed using a LM20 microfluidizer from Microfluidics (Westwood, Mass.). The crude lysate was immediately supplemented with 0.2 mM phenylmethylsulfonyl fluoride (PMSF) and centrifuged at 20,000 g for 20 minutes. The soluble fraction was subsequently incubated with 2 mL Ni-NTA (GE Healthcare) per 1,000 ODs for 1 hour at 4° C. Following incubation with the Ni-NTA resin, lysate was removed by pelleting resin at 2,500 g for 3 minutes and washed 3 times with 9 bed volumes of 50 mM potassium phosphate pH 8.0, 500 mM NaCl, 25 mM imidazole, and 3 mM β-mercaptoethanol. Following the batch wash Ni-NTA resin was loaded onto a gravity column and His-tagged protein was eluted with 6 bed volumes of 10 mM Tris/HCl pH 8.0, 200 mM NaCl, 500 mM imidazole, and 3 mM β-mercaptoethanol. Eluted protein was dialyzed overnight against 10 mM Tris/HCl pH 8.0, 200 mM NaCl, and 1 mM DTT and the 6×-His-8×-Arg-SUMO-tag was cleaved using a 20:1 molar ratio of protein: 3C protease. The protein was purified by anion exchange chromatography on a HiTrapQ or MonoQ 10/100 GL column (GE Healthcare) via a linear NaCl gradient and twice by size exclusion chromatography using a Superdex S200 26/60 column (GE Healthcare) run in 10 mM Tris/HCl pH 8.0, 200 mM NaCl, 10 mM MgCl2, 1 mM DTT. Proteins were concentrated to −12 mg/mL for crystallization and flash frozen for storage.
Biochemical assay for Activation of Pyruvate Kinase R
Activation of pyruvate kinase R (PKR) and pyruvate kinase M2 (PKM2) were measured using a luminescence based measurement of ATP generation and the Kinase-Glo luminescent kinase reagent kit.

[1] = PKR AC50 (nM), 0.1 nM PKR, 0.3 mM ADP, 0.1 mM PEP, 1% DMSO

T1 sequence (P30613 14-574): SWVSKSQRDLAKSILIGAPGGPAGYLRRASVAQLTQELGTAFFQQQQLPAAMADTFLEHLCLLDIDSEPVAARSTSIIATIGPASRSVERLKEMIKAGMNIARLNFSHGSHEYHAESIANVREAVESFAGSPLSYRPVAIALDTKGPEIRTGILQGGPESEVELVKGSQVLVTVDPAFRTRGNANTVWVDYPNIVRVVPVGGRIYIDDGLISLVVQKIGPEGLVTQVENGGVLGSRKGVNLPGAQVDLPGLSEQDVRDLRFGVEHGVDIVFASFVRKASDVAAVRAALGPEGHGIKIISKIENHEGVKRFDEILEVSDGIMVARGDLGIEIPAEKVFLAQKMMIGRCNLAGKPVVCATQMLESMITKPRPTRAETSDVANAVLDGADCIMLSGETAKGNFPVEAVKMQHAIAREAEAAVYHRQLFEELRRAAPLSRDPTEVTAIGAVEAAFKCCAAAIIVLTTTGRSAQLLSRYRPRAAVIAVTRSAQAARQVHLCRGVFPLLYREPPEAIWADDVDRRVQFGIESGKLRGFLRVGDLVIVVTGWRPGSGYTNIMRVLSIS

AC50 [1] [nM] | Emax [%] | AC50 [nM] | Structure (SMILES)
26 | 101 |  | COc1ccccc1[C@@H](CO)C(=O)N1Cc2cn(S(=O)(=O)c3cnn(CC(F)F)c3C)nc2C1 [Compound 103, (2S)-1-{2-[1-(2,2-difluoroethyl)-5-methylpyrazol-4-ylsulfonyl]-4H,6H-pyrrolo[3,4-c]pyrazol-5-yl}-3-hydroxy-2-(2-methoxyphenyl)propan-1-one]
34 | 53 |  | O=C([C@H](CO)c1ccccc1)N1Cc2cn(S(=O)(=O)c3cnn(C(F)F)c3)nc2C1 [Compound 116, (2S)-1-(2-{[1-(difluoromethyl)-1H-pyrazol-4-yl]sulfonyl}-2H,4H,5H,6H-pyrrolo[3,4-c]pyrazol-5-yl)-3-hydroxy-2-phenylpropan-1-one]
 | 73 | 8.9 | Cc1cn(CC(F)F)nc1S(=O)(=O)n1cc2c(n1)CN(C(=O)[C@H](CO)c1ccccc1Cl)C2 [Compound 80, (2S)-2-(2-chlorophenyl)-1-(2-{[1-(2,2-difluoroethyl)-4-methyl-1H-pyrazol-3-yl]sulfonyl}-2H,4H,5H,6H-pyrrolo[3,4-c]pyrazol-5-yl)-3-hydroxypropan-1-one]
 | 180 | 120 | COCCOc1ccccc1[C@H](CO)C(=O)N1Cc2cn(S(=O)(=O)c3cnn(CC(F)F)c3)nc2C1 (single isomer, unassigned) [Compound 93]
3300 | 62 |  | O=C([C@@H](CO)c1ccccc1Cl)N1Cc2cn(S(=O)(=O)c3ncn(CC(F)F)n3)nc2C1 [Compound 108, (2R)-2-(2-chlorophenyl)-1-{2-[1-(2,2-difluoroethyl)-1,2,4-triazol-3-ylsulfonyl]-4H,6H-pyrrolo[3,4-c]pyrazol-5-yl}-3-hydroxypropan-1-one]
53 | 89 |  | O=C([C@H](CO)c1ccccc1Cl)N1Cc2cn(S(=O)(=O)c3ncn(CC(F)F)n3)nc2C1 [Compound 107, (2S)-2-(2-chlorophenyl)-1-{2-[1-(2,2-difluoroethyl)-1,2,4-triazol-3-ylsulfonyl]-4H,6H-pyrrolo[3,4-c]pyrazol-5-yl}-3-hydroxypropan-1-one]
> 10000 | 123 |  | C[C@@](CO)(C(=O)N1Cc2cn(S(=O)(=O)c3cnn(CC(F)F)c3)nc2C1)c1ccccn1 (single isomer, unassigned) [Compound 123]
 | 63 | 26 | O=C([C@H](CO)c1ccccc1OCCO)N1Cc2cn(S(=O)(=O)c3cnn(CC(F)F)c3)nc2C1 (single isomer, unassigned) [Compound 109]

Continued, molecule first:

Structure (SMILES) | AC50 [1] [nM] | Emax [%] | AC50 [nM]
O=C([C@H](CO)c1ccccc1F)N1Cc2cn(S(=O)(=O)c3cnn(CC(F)(F)F)c3)nc2C1 [Compound 3, (2S)-2-(2-fluorophenyl)-3-hydroxy-1-(2-{[1-(2,2,2-trifluoroethyl)-1H-pyrazol-4-yl]sulfonyl}-2H,4H,5H,6H-pyrrolo[3,4-c]pyrazol-5-yl)propan-1-one] | 7.1 | 108 | 
O=C([C@H](CO)c1ccccc1F)N1Cc2cn(S(=O)(=O)c3ccn(CC(F)(F)F)n3)nc2C1 [Compound 62, (2S)-2-(2-fluorophenyl)-3-hydroxy-1-{2-[1-(2,2,2-trifluoroethyl)pyrazol-3-ylsulfonyl]-4H,6H-pyrrolo[3,4-c]pyrazol-5-yl}propan-1-one] | 70 | 60 | 
C[C@](CO)(C(=O)N1Cc2cn(S(=O)(=O)c3cnn(CC(F)F)c3)nc2C1)c1ccccn1 (single isomer, unassigned) [Compound 10] | 116 | 112 | 
O=C([C@H](CO)c1ccccc1Cl)N1Cc2cn(S(=O)(=O)c3ccn(CC(F)F)n3)nc2C1 [Compound 13, (2S)-2-(2-chlorophenyl)-1-(2-{[1-(2,2-difluoroethyl)-1H-pyrazol-3-yl]sulfonyl}-2H,4H,5H,6H-pyrrolo[3,4-c]pyrazol-5-yl)-3-hydroxypropan-1-one] | 7 | 133 | 
O=C([C@H](CO)c1ncccc1F)N1Cc2cn(S(=O)(=O)c3ccn(CC(F)F)n3)nc2C1 (single isomer, unassigned) [Compound 31] |  | 45 | 3600
O=C([C@H](CO)c1ccccc1)N1Cc2cn(S(=O)(=O)c3ccc(CCC(F)(F)F)s3)nc2C1 [Compound 17, (2S)-3-hydroxy-2-phenyl-1-(2-{[5-(3,3,3-trifluoropropyl)thiophen-2-yl]sulfonyl}-2H,4H,5H,6H-pyrrolo[3,4-c]pyrazol-5-yl)propan-1-one] | 53 | 23 | 
O=C(N1Cc2cn(S(=O)(=O)c3cnn(CC(F)(F)F)c3)nc2C1)C1(c2ncccc2Cl)COC1 [Compound 52, (3-(3-chloropyridin-2-yl)oxetan-3-yl)(2-((1-(2,2,2-trifluoroethyl)-1H-pyrazol-4-yl)sulfonyl)-2,6-dihydropyrrolo[3,4-c]pyrazol-5(4H)-yl)methanone] | 24 | 93 | 
COCCn1ccc(S(=O)(=O)n2cc3c(n2)CN(C(=O)[C@@H](CO)c2ccccc2F)C3)n1 [Compound 45, (2R)-2-(2-fluorophenyl)-3-hydroxy-1-[2-[1-(2-methoxyethyl)pyrazol-3-ylsulfonyl]-4H,6H-pyrrolo[3,4-c]pyrazol-5-yl]propan-1-one] | 1300 | 53 | 
O=C([C@@H](CO)c1ncccc1F)N1Cc2cn(S(=O)(=O)c3ccn(CC(F)F)n3)nc2C1 (single isomer, unassigned) [Compound 32] |  | 114 | 40
C[C@@H](O)[C@@H](C(=O)N1Cc2cn(S(=O)(=O)c3cnn(CC(F)F)c3)nc2C1)c1ccccc1 [Compound 7, (2S,3R)-1-(2-{[1-(2,2-difluoroethyl)-1H-pyrazol-4-yl]sulfonyl}-2H,4H,5H,6H-pyrrolo[3,4-c]pyrazol-5-yl)-3-hydroxy-2-phenylbutan-1-one] |  | 102 | 17
Cc1cn(CC(F)(F)F)nc1S(=O)(=O)n1cc2c(n1)CN(C(=O)[C@H](CO)c1ccccc1Cl)C2 [Compound 70, (2S)-2-(2-chlorophenyl)-3-hydroxy-1-{2-[4-methyl-1-(2,2,2-trifluoroethyl)pyrazol-3-ylsulfonyl]-4H,6H-pyrrolo[3,4-c]pyrazol-5-yl}propan-1-one] | 82 | 36 | 
COCCn1cc(S(=O)(=O)n2cc3c(n2)CN(C(=O)[C@@H](CO)c2ccccc2F)C3)cn1 [Compound 61, (2R)-2-(2-fluorophenyl)-3-hydroxy-1-{2-[1-(2-methoxyethyl)pyrazol-4-ylsulfonyl]-4H,6H-pyrrolo[3,4-c]pyrazol-5-yl}propan-1-one] | 3000 | 49 | 
COCCn1cc(S(=O)(=O)n2cc3c(n2)CN(C(=O)[C@H](CO)c2ccccc2F)C3)cn1 [Compound 60, (2S)-2-(2-fluorophenyl)-3-hydroxy-1-{2-[1-(2-methoxyethyl)pyrazol-4-ylsulfonyl]-4H,6H-pyrrolo[3,4-c]pyrazol-5-yl}propan-1-one] | 28 | 74 | 
O=C([C@@H](CO)c1ccccc1F)N1Cc2cn(S(=O)(=O)c3cnn(CC(F)(F)F)c3)nc2C1 [Compound 33, (2R)-2-(2-fluorophenyl)-3-hydroxy-1-[2-[1-(2,2,2-trifluoroethyl)pyrazol-4-ylsulfonyl]-4H,6H-pyrrolo[3,4-c]pyrazol-5-yl]propan-1-one] | 450 | 89 | 
Cc1nc(C)c(S(=O)(=O)n2cc3c(n2)CN(C(=O)[C@H](CO)c2ccccc2)C3)s1 [Compound 15, (2S)-1-{2-[(2,4-dimethyl-1,3-thiazol-5-yl)sulfonyl]-2H,4H,5H,6H-pyrrolo[3,4-c]pyrazol-5-yl}-3-hydroxy-2-phenylpropan-1-one] |  | 15 | 44
O=C([C@H](CO)c1ccccc1)N1Cc2cn(S(=O)(=O)c3ccc(Br)s3)nc2C1 [Compound 19, (2S)-1-{2-[(5-bromothiophen-2-yl)sulfonyl]-2H,4H,5H,6H-pyrrolo[3,4-c]pyrazol-5-yl}-3-hydroxy-2-phenylpropan-1-one] | 19 | 67 | 
O=C([C@H](O)c1ccccc1F)N1Cc2cn(S(=O)(=O)c3ccn(CC(F)F)n3)nc2C1 [Compound 51, (2R)-1-{2-[1-(2,2-difluoroethyl)pyrazol-3-ylsulfonyl]-4H,6H-pyrrolo[3,4-c]pyrazol-5-yl}-2-(2-fluorophenyl)-2-hydroxyethanone] |  | 112 | 140
